Measured values from patent US6429291B1, “Hyaluronan receptor protein” (priority 1994, dated 2002).
Entries after “also recorded” stand apart in the source; their conditions may differ.

How the values were obtained:
[1] = test system: Human neutrophils; assay: Neutrophil chemotaxis to IL-8 (modified Boyden chamber); assay type: cell-based; conditions: 100 ng/ml IL-8
Method: Human neutrophils were obtained from peripheral blood samples of normal volunteers and mixed in ACD solution (0.085 M trisodium citrate, 0.065 M citric acid, 2% dextrose) to prevent clotting. Five percent dextran was added and the separated plasma and white blood cells were removed. The cells were washed twice in PBS, pH 7.2 and a Ficoll gradient was used to separate the lymphocytes. The isolated neutrophils were then washed and resuspended in PBS. Red cells were lysed by brief exposure to hypotonic PBS.
(§1) Chemotaxis was stimulated using either bacterial endotoxin-activated mouse serum (AS), prepared according to Stevenson et al. (1981) for macrophages and macrophage cell lines, or 100 ng/ml interleukin-8 (IL-8) for neutrophils. Heat-inactivated serum (56° C. for 20 mintes) or medium served as negative controls respectively. The chemotactic assay used was a colorometric assay described in Shi et al., (1993). […] The number of displaced cells was quantified by the addition of 3-(4.5-dimethylthiazol-2-yl)-2,5-[…] tetrazolium bromide (MTT) to a final concentration of 250 μg/ml that was incubated at 37° C. for 4 hours. […] The plate was analysed within 2 hours on a microtiter plate ELISA reader with a filter of 540 nm. […]

[2] = test system: smooth muscle cells; assay: Smooth muscle cell migration after wounding of monolayers; assay type: cell-based, bovine; conditions: peptides 2 μg/ml
Method: Smooth muscle cells were isolated from bovine aorta as described previously from rat aorta (Majack et al., 1984) and were maintained in Dulbecco's Modified Eagles medium (DME) supplemented with 10% fetal calf serum (FCS) and 20 mM HEPES buffer, pH 7.2 at 37° C. and 5% CO2 in air. All experiments were performed using defined medium [DME with 20 mM HEPES buffer, pH 7.2, 0.5 U/ml insulin (beef and pork zinc suspension, Novo Laboratories Ltd., Willowdale, Ontario) and 4 μg/ml transferrin (Sigma Chemical Co., St. Louis, Mo.)], and the culture medium was replaced 24 hours before filming. Wounding injury to confluent monolayers consisted of removal of half the monolayer using a cell lifter followed by the addition of fresh defined medium in the presence of either RHAMM peptide aa401-411 or the scrambled peptide of the same domain as described above.
The HA-binding region of RHAMM consists of two 10 amino acid domains located close to the carboxy terminus of the protein (Yang, 1993). A peptide mimicking Domain 1 (amino acids 401-411)—YKQKIKHVVKLK—and a scrambled peptide consisting of the same amino acids arranged in a random manner—YLKQKKVKKHIV—were synthesized. Both peptides were used at a final concentration of 2 μg/ml in locomotion assays.
Injured cell monolayers were monitored for motility using an IM 35 Zeiss inverted microscope to which a video camera (Hamamatsu CCD, Inc., Japan) was attached. The cells were maintained at 37° C. using a heated platform (TRZ 3700, Zeiss, Germany). Cell locomotion was followed by using image analysis (Image 1, Universal Imaging Corp., Westchester, Pa. This program allows quantification of nuclear displacement from a sequence of digitalized images. The motility of thirty cells in each experiment was followed for a period of 24 hours with mean velocities calculated every hour.

[3] = test system: macrophage cell line WEHI-3; assay: Macrophage chemotaxis to endotoxin-activated mouse serum, WEHI-3; assay type: cell-based
Method: (§2) The macrophage cell lines S1 and WEHI-3 (Branch et al., 1989) were used to analyze the effect of antibodies and synthetic peptide on macrophage chemotaxis to endotoxin-activated mouse serum (AS). These cells lines were also maintained in DME with 10% FCS and 20 mM Hepes buffer, pH 7.2 at 37° C. and 5% CO2 in air.
as §1, with “(1993). Briefly, a 96-well chemotaxis chamber with a lower recess large enough to hold a microtiter plate (Neuro Probe, stock#MBA96) and a 5 μm framed filter (Neuro Probe, stock#PFD5/A) were used. The microtiter plate was filled with chemoattractants and controls and placed in the recess of the chemotaxis chamber.” for “(1993).”

[4] = test system: macrophage cell line S1; assay: Macrophage chemotaxis to endotoxin-activated mouse serum, S1; assay type: cell-based
Method: as §2
as §1, with “(1993). Briefly, a 96-well chemotaxis chamber with a lower recess large enough to hold a microtiter plate (Neuro Probe, stock#MBA96) and a 5 μm framed filter (Neuro Probe, stock#PFD5/A) were used. The microtiter plate was filled with chemoattractants and controls and placed in the recess of the chemotaxis chamber.” for “(1993).”

[5] = test system: human breast cancer cell lines; assay: Locomotion of human breast cancer cell lines (timelapse image analysis); assay type: cell-based; conditions: R3 5 μg/ml; peptide I 2 μg/ml; P<0.001
Method: Cells were cultured as described above. For cell locomotion studies, aliquots of 10^5 cells were added to a 25 cm^2 tissue culture flask (Corning). After 24 hours of growth, cells were washed with calcium and magnesium free Hank's balanced salt solution (HBSS) (Gibco BRL), the defined serum-free media (DM), DMEM supplied with 4.0 μg/ml transferrin (Human, Gibco BRL), 0.5 U/ml Lente insulin (beef and pork, Connaught Novo Ltd., Willowdale, Ontario) and 20 mM Hepes, PH 7.2, was added to the flasks. Twelve hours later, cell locomotion was recorded by using a computerized timelapse image analysis system (Image-1, Universal Image Corporation, Westchester, Pa.) which quantitates nuclear displacement Antibody—R3 (5 μg/ml), peptide I (2 μg/ml), control rabbit IgG (5 μg/ml) or scrambled peptide I (2 μg/ml) were added to media 20 min before the beginning of filming. Images were taken with a Zeiss inverted microscope (model IM35, Zeiss) using a 10× objective every 30 min for 3 hours. A minimum of 30 cells were tracked in each above experimental condition; experiments done in triplicate.

[6] = test system: C3 fibroblasts; assay: Cell locomotion assay, timelapse image analysis of C3 fibroblasts; assay type: cell-based, murine; conditions: 70% confluent C3, 2 h
Method: For motility experiments, 10^5 cells were subcultured into 25 cm^2 tissue culture flasks (Corning), and maintained for 12 h as above. The medium was then aspirated, cells were rinsed with Hanks Balanced Salt Solution (HBSS) (Gibco) and fresh, serum-free α-MEM containing 4.0 μg/ml transferrin (Gibco) and 2.0 μg/ml insulin (Sigma) (defined medium) was added to the flasks.
Cell locomotion was recorded using a computerized timelapse analysis system (Image 1, Universal Imaging Corporation, Westchester, Pa.) that measures nuclear displacement. During the filming period, cells were maintained at 37° C. in defined-media at physiological pH.
A 10 amino acid peptide corresponding to one of the HA binding domains of RHAMM, peptide^aa423-432 (Yang et al., 1993), was synthesised and added at various concentrations (0,0.1, 1.0, 5.0, 10.0 and 50.0 ng/ml) to 70% confluent C3 fibroblasts. Cell locomotion was monitored by image analysis for 2 h from the addition of the peptide. A scrambled peptide was used as control.
RHAMM-GST fusion protein prepared and purified as described in (b) above was added at concentrations of 1 pg/ml, 1 ng/ml, 1 μg/ml and 1 mg/ml to 70% confluent C3 cultures and cell locomotion was monitored by image analysis for 2 h from protein addition as described in Example 5.
For each experiment, 30 cells were tracked every 10 min for a 1 hr period.
RHAMM-GST fusion protein, as described in (d) above, and deleted/mutated RHAMM-GST fusion protein, as described in (h) above were added at 5 ng/ml to subconfluent cultures of C3 cells and cell locomotion was monitored by image analysis for 2 h from protein addition as described in Example 5.

[7] = test system: C3 fibroblasts; assay: Focal adhesion formation (vinculin immunofluorescence) and cell spreading of C3 fibroblasts; assay type: cell-based, murine; conditions: for cells with focal adhesion staining (vinculin plaque-positive cells): 100 ng/mL
Method: The ras-transformed 10T½ cells termed C3 (Egan et al., 1987) were grown on fibronectin coated glass coverslips for 24 hrs. The cells were then exposed to RHAMM I-2a (1 ng/ml to 1 mg/ml) for 2 hrs at 37° C. before fixing with 3% paraformaldehyde/phosphate buffered saline (PBS). Cells were then washed three times with 10% fetal calf serum PBs, permeabilized with 0.2% triton X-100/PBS for 3 min, and washed again. The coverslips were then incubated with anti-vinculin (Sigma, 1:75 dilution) or an identical concentration of nonspecific mouse IgG for 1 hr at 37° C. After washing, the coverslips were incubated with rhodamine labelled goat anti-mouse antibody (1:200, Sigma) for 2 hrs at room temperature. After further washings, the coverslips were mounted on glass slides and viewed on a Zeiss Axiovert 35 M fluorescent microscope.

YKQKIKHVVKLK [peptide aa^401-411]
effect on neutrophil chemotaxis to IL-8 [1]: completely inhibited; also recorded: significantly inhibited
effect on rate of translocation of smooth muscle cells after wounding [2]: significantly reduced the rate of translocation
effect on rate of translocation of smooth muscle cells after wounding ([2]; listed as Peptide aa^401-411): significantly inhibited the rate of translocation
effect on chemotaxis to endotoxin-activated mouse serum [3]: inhibited
effect on chemotaxis to endotoxin-activated mouse serum [4]: inhibited
effect on locomotion of all cell lines [5]: reduced significantly

YLKQKKVKKHIV [scrambled peptide, same amino acids as peptide aa401-411 arranged in a random manner, reference compound]
effect on rate of translocation of smooth muscle cells after wounding [2]: no effect on the wounding response

peptide^aa423-432: 10 amino acid peptide corresponding to one of the HA binding domains of RHAMM (KEVELEKHIA; UniProt Q00547 423-432, looked up, fragment)
concentration at which cell locomotion was significantly inhibited [6]: ≥ 5 ng/mL

B1: RHAMM I-2a-GST fusion protein: GST fusion protein of the secreted RHAMM isoform I-2a (with alternatively spliced exon 2A) (protein)
chain: MRALSLELMKLRNKRETKMRSMMVKQEGMELKLQATQKDLTESKGKIVQLEGKLVSIEKEKIDEKCETEKLLEYIQEISCASDQVEKCKVDIAQLEEDLKEKDREILSLKQSLEENITFSKQIEDLTVKCQLLETERDNLVSKDRERAETLSAEMQILTERLALERQEYEKLQQKELQSQSLLQQEKELSARLQQQLCSFQEEMTSEKNVFKEELKLALAELDAVQQKEEQSERLVKQLEEERKSTAEQLTRLDNLLREKEVELEKHIAAHAQAILIAQEKYNDTAQSLRDVTAQLESVQEKYNDTAQSLRDVTAQLESEQEKYNDTAQSLRDVTAQLESEQEKYNDTAQSLRDVTAQLESVQEKYNDTAQSLRDVTAQLESYKSSTLKEIEDLKLENLTLQEKVAMAEKSVEDVQQQILTAESTNQEYARMVQDLQNRSTLKEEEIKEITSSFLEKITDLKNQLRQQDEDFRKQLEEKGKRTAEKENVMTELTMEINKWRLLYDELYEKTKPFQQQLDAFEAEKQALLNEHGATQEQLNKIRDSYAQLLGHQNLKQKIKHVVKLKDENSQLKSEVSKLRSQLVKRKQNELRLQGELDKALGIRHFDPSKAFCHASKENFTPLKEGNPNCC
cells being vinculin plaque positive ([7]; 1 ng/mL, 2 hrs): 75%
cells with focal adhesion staining (vinculin plaque-positive cells) ([7]; 2 hrs): < 50%
cells with focal adhesion staining (vinculin plaque-positive cells) ([7]; 2 hrs, listed as RHAMM I-2a): > 50%
vinculin plaque-positive cells ([7]; 1 mg/mL, 2 hrs): > 50%
effect on cell morphology ([7]; various concentrations for 2 hours, data not shown): stimulate cell spreading
